Laboratory results as given in paper PMC7582324, “Potential Anti-Acetylcholinesterase Activity of Cassia timorensis DC” (Molecules, 2020).
Converted amounts (≈) assume the structure as drawn. “Also recorded” adds a separate entry of the source. Where two headings read alike, the source gives them in different places.

Experiments:
[1] = molecular target: Acetylcholinesterase (AChE) from Electrophorus electricus (electrical eels) type VI-S (Electrophorus electricus, UniProt O42275); assay: biochemical; format: biochemical; conditions: for inhibition at 100 µg/mL: read-out: AChE inhibition (%)
Chain of Acetylcholinesterase (AChE) from Electrophorus electricus (electrical eels) type VI-S (O42275 24-633): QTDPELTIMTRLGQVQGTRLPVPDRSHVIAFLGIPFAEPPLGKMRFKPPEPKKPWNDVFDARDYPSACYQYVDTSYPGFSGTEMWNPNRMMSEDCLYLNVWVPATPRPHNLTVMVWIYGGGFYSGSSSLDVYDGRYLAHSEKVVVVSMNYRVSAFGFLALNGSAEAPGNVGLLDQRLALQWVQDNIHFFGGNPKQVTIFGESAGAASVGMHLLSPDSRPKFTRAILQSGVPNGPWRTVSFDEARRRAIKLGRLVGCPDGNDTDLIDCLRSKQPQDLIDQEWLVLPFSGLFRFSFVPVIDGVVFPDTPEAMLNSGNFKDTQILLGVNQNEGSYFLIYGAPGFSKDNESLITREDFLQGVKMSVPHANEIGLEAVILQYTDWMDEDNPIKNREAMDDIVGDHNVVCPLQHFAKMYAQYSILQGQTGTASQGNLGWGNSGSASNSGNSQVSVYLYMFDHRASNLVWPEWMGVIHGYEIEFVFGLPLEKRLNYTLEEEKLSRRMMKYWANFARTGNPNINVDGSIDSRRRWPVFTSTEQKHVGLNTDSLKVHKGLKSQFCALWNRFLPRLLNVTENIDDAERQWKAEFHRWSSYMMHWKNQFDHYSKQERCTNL
Experimental: Coloring agent 5-5′dithiobis [2-nitrobenzoicacid] (DTNB) was purchased from ACROS (Geel, Belgium). Silica gel (Kieselgel 60, 230–400 mesh atm) was purchased from Merck (Darmstadt, Germany). The solvents were of analytical grade and used as received.
The in vitro AChE inhibition assay was evaluated using a spectrophotometry method developed by Ellman with some modifications. […] Plant extracts were dissolved in dimethyl sulfoxide (DMSO) and tested at a final concentration of 0.2 mg/mL, while compounds were tested at 0.1 mg/mL. The final concentration of DMSO was fixed at 1% in the 96-well plate. In a 96-well plate, 178 µL of 50 mM phosphate buffer, 2 µL of […] compound and 20 mg/mL extract, and 10 µL of 0.5 U/mL AChE were added. The first incubation period was 15 min at 25 °C. Five microliters of 14 mM ATCI substrate and 10 mM of the color indicator, DTNB, were added equally into each well and the well was then incubated at 25 °C for 30 min to initiate the enzyme reaction. The absorbance was measured at 415 nm using Promega Glomax® Multi Plus Reader (Promega, Madison, WI, USA). […] The percentage of inhibition was calculated using formula (1):(1) Percentage Inhibition (%) = Absorbance of negative control − Absorbance of test sample/ Absorbance of negative control × 100
IC50 values of plant crude extract, fractions, and compounds were calculated from the graph of percentage of inhibition versus extract concentrations using Microsoft Excel. GraphPad Prism software was used to generate the graphs.

AChE = conditions: individual compounds; cited from earlier work
[2] = cited from earlier work
[3] = isolated compounds at 0.1 mg/mL

Row | Molecule | inhibition at 100 µg/mL [1] | BBB permeability [2] | further results
1 | COc1c(-c2ccc(O)c(O)c2)oc2cc(O)cc(O)c2c1=O [Compound 1, 3-methoxyquercetin] |  |  | AChE activity relative to quercetin [1]: approximately three times higher than quercetin; AChE inhibitory activity (in words) [1, 3]: moderate inhibition; IC50 ([1]; mean ± s.d. (n = 3), read-out: AChE Inhibition (IC50)): 83.7 ± 4.67 µM
2 | CCC=CCC=CCC=CCCCCCCCC(=O)O [Compound 3, 9,12,15-octadecatrienoic acid] | < 50% |  | AChE inhibitory activity (in words) [1]: weak inhibitory activity; also recorded: not active
3 | CC[C@H](CC[C@@H](C)[C@H]1CC[C@H]2[C@@H]3CC=C4C[C@@H](O)CC[C@]4(C)[C@H]3CC[C@]12C)C(C)C [Compound 4, β-sitosterol] | < 50% |  | IC50 against AChE (AChE): 55 µg/mL (≈ 133 µM)
4 | CC[C@H](/C=C/[C@@H](C)[C@H]1CC[C@H]2[C@@H]3CC=C4C[C@@H](O)CC[C@]4(C)[C@H]3CC[C@]12C)C(C)C [Compound 5, stigmasterol] | < 50% |  | IC50 against AChE (AChE): 63 µg/mL (≈ 153 µM)
5 | CCCCCCCCCCCCCCCCCCO [Compound 6, 1-octadecanol] | < 50% |  | AChE inhibitory activity (in words) [1, 3]: weak inhibitory activity; also recorded: not active
6 | COc1ccc(-c2cc(=O)c3c(O)c(OC)c(O)c(OC)c3o2)cc1 [nevadensin] |  | high BBB permeability | 
7 | COc1cc(-c2cc(=O)c3c(O)c(OC)c(O)c(OC)c3o2)ccc1O [sudachitin] |  | high BBB permeability | 
8 | aceronin |  | high BBB permeability | 
